Molecular target: T1, PD-1/PD-L1 protein/protein interaction (recombinant human PD-L1 protein (19-238), recombinant human PD-1 protein (25-167)) (Homo sapiens, UniProt Q9NZQ7)
T1 construct: Recombinant human PD-L1 protein (19-238) with a His-tag at the C-terminus; purchased AcroBiosystems PD1-H5229 (PD-L1-His); PD1-H5257 (PD-1-Fc)
Assay: PD-1/PD-L1 Homogeneous Time-Resolved Fluorescence (HTRF) Binding Assay
Conditions: 25° C., PBS buffer (pH 7.4), 40 minutes preincubation with inhibitors
Procedure: The assays were conducted in a standard black 384-well polystyrene plate with a final volume of 20 μL. Inhibitors were first serially diluted in DMSO and then added to the plate wells before the addition of other reaction components. The final concentration of DMSO in the assay was 1%. The assays were carried out at 25° C. in the PBS buffer (pH 7.4) with 0.05% Tween-20 and 0.1% BSA. Recombinant human PD-L1 protein (19-238) with a His-tag at the C-terminus was purchased from AcroBiosystems (PD1-H5229). Recombinant human PD-1 protein (25-167) with Fc tag at the C-terminus was also purchased from AcroBiosystems (PD1-H5257). PD-L1 and PD-1 proteins were diluted in the assay buffer and 10 μL was added to the plate well. Plates were centrifuged and proteins were preincubated with inhibitors for 40 minutes. The incubation was followed by the addition of 10 μL of HTRF detection buffer supplemented with Europium cryptate-labeled anti-human IgG (PerkinElmer-AD0212) specific for Fc and anti-His antibody conjugated to SureLight®-Allophycocyanin (APC, PerkinElmer-AD0059H). After centrifugation, the plate was incubated at 25° C. for 60 min. before reading on a PHERAstar FS plate reader (665 nm/620 nm ratio). Final concentrations in the assay were […], 10 nM PD-L1, 1 nM europium anti-human IgG and 20 nM anti-His-Allophycocyanin. IC50 determination was performed by fitting the curve of percent control activity versus the log of the inhibitor concentration using the GraphPad Prism 5.0 software.

T1 sequence (Q9NZQ7 19-238): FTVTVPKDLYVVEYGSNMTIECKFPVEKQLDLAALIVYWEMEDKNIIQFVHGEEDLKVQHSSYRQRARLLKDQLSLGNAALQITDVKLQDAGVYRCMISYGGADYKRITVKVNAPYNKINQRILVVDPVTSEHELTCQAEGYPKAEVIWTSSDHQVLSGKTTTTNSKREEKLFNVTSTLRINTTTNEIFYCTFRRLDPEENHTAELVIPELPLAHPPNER

IC50, ≤ 10 nM:
Cn1cc(CNCCO)cc(C(=O)Nc2cccc(-c3cccc(Nc4nccc5cc(CN6CC(C(=O)O)C6)cnc45)c3Cl)c2Cl)c1=O [Example 17, 1-((8-(2,2′-dichloro-3′-(5-((2-hydroxyethylamino)methyl)-1-methyl-2-oxo-1,2-dihydropyridine-3-carboxamido)biphenyl-3-ylamino)-1,7-naphthyridin-3-yl)methyl)azetidine-3-carboxylic acid]
Cn1cc(CNCC(C)(C)O)cc(C(=O)Nc2cccc(-c3cccc(Nc4nccc5cc(CN6CC(C(=O)O)C6)cnc45)c3Cl)c2Cl)c1=O [Example 18, 1-((8-(2,2′-dichloro-3′-(5-((2-hydroxy-2-methylpropylamino)methyl)-1-methyl-2-oxo-1,2-dihydropyridine-3-carboxamido)biphenyl-3-ylamino)-1,7-naphthyridin-3-yl)methyl)azetidine-3-carboxylicacid]
Cc1c(Nc2nccc3cc(CNCCO)cnc23)cccc1-c1cccc(Nc2nccc3cc(CNCCO)cnc23)c1C [Example 19, 2,2′-(((((2,2′-dimethyl-[1,1′-biphenyl]-3,3′-diyl)bis(azanediyl))bis(1,7-naphthyridine-8,3-diyl))bis(methylene))bis(azanediyl))bis(ethan-1-ol)]
Cc1c(Nc2nccc3cc(CN4CC[C@@H](O)C4)cnc23)cccc1-c1cccc(Nc2nccc3cc(CN4CC[C@@H](O)C4)cnc23)c1C [Example 20, (3R,3′R)-1,1′-((((2,2′-dimethyl-[1,1′-biphenyl]-3,3′-diyl)bis(azanediyl))bis(1,7-naphthyridine-8,3-diyl))bis(methylene))bis(pyrrolidin-3-ol)]
Cc1c(Nc2nccc3cc(CNCCO)cnc23)cccc1-c1cccc(Nc2nccc3cc(CN4CC[C@@H](O)C4)cnc23)c1C [Example 21, (R)-1-((8-(3′-(3-((2-hydroxyethylamino)methyl)-1,7-naphthyridin-8-ylamino)-2,2′-dimethylbiphenyl-3-ylamino)-1,7-naphthyridin-3-yl)methyl)pyrrolidin-3-ol]
O[C@@H]1CCN(Cc2cnc3c(Nc4cccc(-c5cccc(Nc6nccc7cc(CN8CC[C@@H](O)C8)cnc67)c5Cl)c4Cl)nccc3c2)C1 [Example 22, (3R,3′R)-1,1′-((((2,2′-dichloro-[1,1′-biphenyl]-3,3′-diyl)bis(azanediyl))bis(1,7-naphthyridine-8,3-diyl))bis(methylene))bis(pyrrolidin-3-ol)]
Cc1c(Nc2nccc3cc(CN4CC[C@@H](O)C4)cnc23)cccc1-c1cccc(Nc2ncnc3cc(CN4CC[C@@H](O)C4)cnc23)c1C [Example 23, (R)-1-((4-(3′-(3-(((R)-3-hydroxypyrrolidin-1-yl)methyl)-1,7-naphthyridin-8-ylamino)-2,2′-dimethylbiphenyl-3-ylamino)pyrido[3,2-d]pyrimidin-7-yl)methyl)pyrrolidin-3-ol]
Cc1c(Nc2nccc3cc(CN4CC[C@@H](O)C4)cnc23)cccc1-c1cccc(Nc2ncnc3cc(CNCCO)cnc23)c1C [Example 24, (R)-1-((8-(3′-(7-((2-hydroxyethylamino)methyl)pyrido[3,2-d]pyrimidin-4-ylamino)-2,2′-dimethylbiphenyl-3-ylamino)-1,7-naphthyridin-3-yl)methyl)pyrrolidin-3-ol]
Cc1c(Nc2nccc3cc(CN4CC[C@@H](O)C4)cnc23)cccc1-c1cccc(Nc2ncnc3cc(CN(C)CCO)cnc23)c1C [Example 25, (R)-1-((8-(3′-(7-(((2-hydroxyethyl)(methyl)amino)methyl)pyrido[3,2-d]pyrimidin-4-ylamino)-2,2′-dimethylbiphenyl-3-ylamino)-1,7-naphthyridin-3-yl)methyl)pyrrolidin-3-ol]
Cc1c(Nc2nccc3cc(CN4CC[C@@H](O)C4)cnc23)cccc1-c1cccc(Nc2nccc3cc(CN4CC[C@@H](C(=O)N(C)C)C4)cnc23)c1C [Example 26, (R)-1-((8-(3′-(3-(((R)-3-hydroxypyrrolidin-1-yl)methyl)-1,7-naphthyridin-8-ylamino)-2,2′-dimethylbiphenyl-3-ylamino)-1,7-naphthyridin-3-yl)methyl)-N,N-dimethylpyrrolidine-3-carboxamide]
Cc1c(Nc2nccc3cc(CN4CC[C@@H](O)C4)cnc23)cccc1-c1cccc(Nc2ncnc3cc(CNC[C@H](C)O)cnc23)c1C [Example 27, (R)-1-((8-(3′-(7-(((S)-2-hydroxypropylamino)methyl)pyrido[3,2-d]pyrimidin-4-ylamino)-2,2′-dimethylbiphenyl-3-ylamino)-1,7-naphthyridin-3-yl)methyl)pyrrolidin-3-ol]
Cc1c(NC(=O)c2cc(CN3CC[C@@H](O)C3)cn(C)c2=O)cccc1-c1cccc(Nc2nccc3cc(CN4CC[C@@H](C(=O)O)C4)cnc23)c1C [Example 28, (R)-1-((8-(3′-(5-(((R)-3-hydroxypyrrolidin-1-yl)methyl)-1-methyl-2-oxo-1,2-dihydropyridine-3-carboxamido)-2,2′-dimethylbiphenyl-3-ylamino)-1,7-naphthyridin-3-yl)methyl)pyrrolidine-3-carboxylic acid]
Cc1c(Nc2nccc3cc(CN4CC[C@@H](O)C4)cnc23)cccc1-c1cccc(Nc2ncnc3cc(CNC[C@@H](C)O)cnc23)c1C [Example 29, (R)-1-((8-(3′-(7-(((R)-2-hydroxypropylamino)methyl)pyrido[3,2-d]pyrimidin-4-ylamino)-2,2′-dimethylbiphenyl-3-ylamino)-1,7-naphthyridin-3-yl)methyl)pyrrolidin-3-ol]
Cc1c(Nc2nccc3cc(CN4CC[C@@H](O)C4)cnc23)cccc1-c1cccc(Nc2ncnc3cc(CNCC(C)(C)O)cnc23)c1C [Example 30, (R)-1-((8-(3′-(7-((2-hydroxy-2-methylpropylamino)methyl)pyrido[3,2-d]pyrimidin-4-ylamino)-2,2′-dimethylbiphenyl-3-ylamino)-1,7-naphthyridin-3-yl)methyl)pyrrolidin-3-ol]
Cc1c(Nc2nccc3cc(CN4CC[C@@H](C(=O)O)C4)cnc23)cccc1-c1cccc(NC(=O)c2nc3c(n2C)CCN(C)C3)c1Cl [Example 31, (R)-1-((8-(2′-chloro-3′-(1,5-dimethyl-4,5,6,7-tetrahydro-1H-imidazo[4,5-c]pyridine-2-carboxamido)-2-methylbiphenyl-3-ylamino)-1,7-naphthyridin-3-yl)methyl)pyrrolidine-3-carboxylic acid]
Cc1c(Nc2nccc3cc(CN4CC[C@H](O)C4)cnc23)cccc1-c1cccc(NC(=O)c2nc3c(n2C)CCN(C)C3)c1Cl [Example 32, (S)—N-(2-chloro-3′-(3-((3-hydroxypyrrolidin-1-yl)methyl)-1,7-naphthyridin-8-ylamino)-2′-methylbiphenyl-3-yl)-1,5-dimethyl-4,5,6,7-tetrahydro-1H-imidazo[4,5-c]pyridine-2-carboxamide]
Cc1c(Nc2nccc3cc(CN4CC[C@@](C)(C(=O)O)C4)cnc23)cccc1-c1cccc(NC(=O)c2nc3c(n2C)CCN(C)C3)c1Cl [Example 33, (R)-1-((8-(2′-chloro-3′-(1,5-dimethyl-4,5,6,7-tetrahydro-1H-imidazo[4,5-c]pyridine-2-carboxamido)-2-methylbiphenyl-3-ylamino)-1,7-naphthyridin-3-yl)methyl)-3-methylpyrrolidine-3-carboxylic acid]
Cc1c(Nc2nccc3cc(CN4CC[C@@H](C(=O)O)C4)cnc23)cccc1-c1cccc(-c2nc3c(s2)CNCC3)c1C [Example 34, (R)-1-((8-((2,2′-dimethyl-3′-(4,5,6,7-tetrahydrothiazolo[5,4-c]pyridin-2-yl)-[1,1′-biphenyl]-3-yl)amino)-1,7-naphthyridin-3-yl)methyl)pyrrolidine-3-carboxylic acid]
Cc1c(Nc2nccc3cc(CN4CC[C@@H](O)C4)cnc23)cccc1-c1cccc(-c2nc3c(s2)CNCC3)c1C [Example 35, (R)-1-((8-((2,2′-dimethyl-3′-(4,5,6,7-tetrahydrothiazolo[5,4-c]pyridin-2-yl)-[1,1′-biphenyl]-3-yl)amino)-1,7-naphthyridin-3-yl)methyl)pyrrolidin-3-ol]
Cc1c(Nc2nccc3cc(CN4CC[C@H](O)C4)cnc23)cccc1-c1cccc(-c2nc3c(s2)CNCC3)c1C [Example 36, (S)-1-((8-((2,2′-dimethyl-3′-(4,5,6,7-tetrahydrothiazolo[5,4-c]pyridin-2-yl)-[1,1′-biphenyl]-3-yl)amino)-1,7-naphthyridin-3-yl)methyl)pyrrolidin-3-ol]
Cc1c(Nc2nccc3cc(CN4CC[C@@H](O)C4)cnc23)cccc1-c1cccc(-c2nc3c(o2)CN(C(=O)CN(C)C)C3)c1C [Example 37, (R)-2-(dimethylamino)-1-(2-(3′-((3-((3-hydroxypyrrolidin-1-yl)methyl)-1,7-naphthyridin-8-yl)amino)-2,2′-dimethyl-[1,1′-biphenyl]-3-yl)-4,6-dihydro-5H-pyrrolo[3,4-d]oxazol-5-yl)ethan-1-one]

Reference: patent US12466822B2, “Heterocyclic compounds as immunomodulators” (Incyte Corporation, priority 2016, dated 2025)
